In patent publication US20220088102A1, “CROTON LECHLERI COMPOSITIONS AND THEIR USE IN THE TREATMENT OF CYSTIC FIBROSIS” (priority 2020, published 2022):
≈ marks a conversion by molar mass, not a printed value. Where two headings read alike, the source gives them in different places.

Tests used:
[1] = In vitro Permeation Test (IVPT), Franz diffusion cell, Strat-M membranes
Source text: (§1) All reference to skin includes references to epithelial skin and epithelial layer of the lungs, nose, mouth and throat. IVPT is a flux measurement that is common to those skilled in the art to evaluate topical drugs inclusive to topical delivery to the lungs, nose, mouth and throat.

[2] = system: DNA of the cells; details: Chen 1994, cited from earlier work; for healing effects: in the Ecuadorian sap
[3] = system: methicillin-resistant Staphylococcus aureus (MRSA) strains; test: In vitro MIC and MBC assay, strain panel (Example 3); type: cell-based; details: for MBC (% relative to amount in AB-101) / MIC (% relative to amount in AB-101): MRSA; for MIC (% relative to amount in AB-101): 50% = 10 μg/mL taspine; for MIC: MRSA (Table 13)
Source text: (§2) Measures included the minimum inhibitory concentration (MIC) which is the lowest concentration of AB-101 that prevents visible growth of the bacterium or pathogen, and minimum bactericidal concentration (MBC) which is the lowest concentration of an antibacterial agent required to kill a bacterium.

[4] = system: methicillin-susceptible Staphylococcus aureus (MSSA) strains; test: as above; type: cell-based; details: for MIC (% relative to amount in AB-101): 50% = 10 μg/mL taspine
Source text: as §2

[5] = Log P analysis (partition coefficient, water and n-Octanol)
Source text: as §1
Log P is an assessment of a molecule's lipophilicity, indicating how readily an analyte can partition between aqueous and organic phases. […] To reach high systemic levels, a topical drug must be permeable enough, which is defined as lipophilic enough, to partition into the lipid bilayer of the skin, but, not so lipophilic that once it is in the skin bilayer it will stay sequestered there. Lipophilicity plays a major role in determining where drugs are distributed within the body after absorption into tissues and, as a consequence, in how rapidly they are metabolized and excreted.
The Log P value is a constant defined in the following manner: Log P=log 10 (Partition Coefficient) Partition Coefficient, P=[organic]/[aqueous] Where [ ] indicates the concentration of solute in the organic and aqueous partition. […] Although log P is a constant, its value is dependent on the choice of the organic partitioning solvent and, to a lesser degree, on the conditions of measurement.

[6] = system: wound healing; details: in vivo in rats, Pieters et al 1995; cited from earlier work
[7] = component permeating from AB-101 100% Lot 1
[8] = component permeating from AB-101 100% Lot X
[9] = highest concentration tested 50% relative to AB-101 = 10 μg/mL taspine
[10] = strain 1674606, MupirocinR, MSSA
[11] = strain 1674608, MupirocinR, MSSA
[12] = strain CDC 461, MupirocinS, MSSA
[13] = strain CDC 462, MupirocinS, MSSA
[14] = strain CDC 463, MupirocinS, MSSA
[15] = strain CDC 464, MupirocinS, MSSA
[16] = strain CDC 484, MupirocinS, MSSA
[17] = strain CDC 485, MupirocinS, MSSA
[18] = component of AB-101, 100%, Batch 0
[19] = component of AB-101, 100%, Batch 1
[20] = component of AB-101, 100%, Batch 2
[21] = component of AB-101, 100%, Batch X
[22] = component of AB-101 Lyophilized & Resuspended, Batch 0
[23] = component of AB-101 Lyophilized & Resuspended, Batch 1
[24] = component of AB-101 Lyophilized & Resuspended, Batch 2
[25] = component of AB-101 Lyophilized & Resuspended, Batch X
[26] = strain ATCC 29213, QC control (Table 13)
[27] = strain CDC 461, MupirocinS, MSSA (Table 13)
[28] = strain CDC 463, MupirocinS, MSSA (Table 13)

Compound: Oc1cc(O)c2c(c1)O[C@H](c1cc(O)c(O)c(O)c1)[C@@H](O)C2 [Gallocatechin, gallocatechin]
- Flux (J) [1, 7]: 18.25 ug/cm^2/hr
- Flux (J) [1, 8]: 4.33 ug/cm^2/hr
- effect on cell proliferation [2]: slightly stimulating to cell proliferation

Compound: COc1ccc2c(=O)oc3c(OC)cc(CCN(C)C)c4c(=O)oc1c2c34 [Taspine, taspine]
- activity as evaluated by this invitro test method (MIC, MBC) [3, 9]: does not have activity
- MBC (% relative to amount in AB-101) ([3]; strain 1674607, MupirocinR): >50 % relative to amount in AB-101
- MIC (% relative to amount in AB-101) ([3]; strain 1674607, MupirocinR): >50 % relative to amount in AB-101
- MBC (% relative to amount in AB-101) ([3]; strain 1674611, MupirocinR): >50 % relative to amount in AB-101
- MIC (% relative to amount in AB-101) ([3]; strain 1674611, MupirocinR): >50 % relative to amount in AB-101
- MBC (% relative to amount in AB-101) ([3]; strain CDC 218, MupirocinR): >50 % relative to amount in AB-101
- MIC (% relative to amount in AB-101) ([3]; strain CDC 218, MupirocinR): >50 % relative to amount in AB-101
- MBC (% relative to amount in AB-101) ([3]; strain CDC 220, MupirocinS): >50 % relative to amount in AB-101
- MIC (% relative to amount in AB-101) ([3]; strain CDC 220, MupirocinS): >50 % relative to amount in AB-101
- MBC (% relative to amount in AB-101) ([3]; strain CDC 224, MupirocinR): >50 % relative to amount in AB-101
- MIC (% relative to amount in AB-101) ([3]; strain CDC 224, MupirocinR): >50 % relative to amount in AB-101
- MBC (% relative to amount in AB-101) ([3]; strain CDC 227, MupirocinS): >50 % relative to amount in AB-101
- MIC (% relative to amount in AB-101) ([3]; strain CDC 227, MupirocinS): >50 % relative to amount in AB-101
- MBC (% relative to amount in AB-101) ([3]; strain CDC 228, MupirocinR): >50 % relative to amount in AB-101
- MIC (% relative to amount in AB-101) ([3]; strain CDC 228, MupirocinR): >50 % relative to amount in AB-101
- MBC (% relative to amount in AB-101) ([3]; strain CDC 480, MupirocinS): >50 % relative to amount in AB-101
- MIC (% relative to amount in AB-101) ([3]; strain CDC 480, MupirocinS): >50 % relative to amount in AB-101
- MBC (% relative to amount in AB-101) ([3]; strain CDC 481, MupirocinS): >50 % relative to amount in AB-101
- MIC (% relative to amount in AB-101) ([3]; strain CDC 481, MupirocinS): >50 % relative to amount in AB-101
- MBC (% relative to amount in AB-101) ([3]; strain CDC 482, MupirocinS): >50 % relative to amount in AB-101
- MIC (% relative to amount in AB-101) ([3]; strain CDC 482, MupirocinS): >50 % relative to amount in AB-101
- MBC (% relative to amount in AB-101) ([3]; strain CDC 483, MupirocinS): >50 % relative to amount in AB-101
- MIC (% relative to amount in AB-101) ([3]; strain CDC 483, MupirocinS): >50 % relative to amount in AB-101
- activity as evaluated by this invitro test method (MIC, MBC) [4, 9]: does not have activity
- MBC (% relative to amount in AB-101) [4, 10]: >50 % relative to amount in AB-101
- MIC (% relative to amount in AB-101) [4, 10]: >50 % relative to amount in AB-101
- MBC (% relative to amount in AB-101) [4, 11]: >50 % relative to amount in AB-101
- MIC (% relative to amount in AB-101) [4, 11]: >50 % relative to amount in AB-101
- MBC (% relative to amount in AB-101) ([4]; strain ATCC 29213, QC control): >50 % relative to amount in AB-101
- MIC (% relative to amount in AB-101) ([4]; strain ATCC 29213, QC control): >50 % relative to amount in AB-101
- MBC (% relative to amount in AB-101) [4, 12]: >50 % relative to amount in AB-101
- MIC (% relative to amount in AB-101) [4, 12]: >50 % relative to amount in AB-101
- MBC (% relative to amount in AB-101) [4, 13]: >50 % relative to amount in AB-101
- MIC (% relative to amount in AB-101) [4, 13]: >50 % relative to amount in AB-101
- MBC (% relative to amount in AB-101) [4, 14]: >50 % relative to amount in AB-101
- MIC (% relative to amount in AB-101) [4, 14]: >50 % relative to amount in AB-101
- MBC (% relative to amount in AB-101) [4, 15]: >50 % relative to amount in AB-101
- MIC (% relative to amount in AB-101) [4, 15]: >50 % relative to amount in AB-101
- MBC (% relative to amount in AB-101) [4, 16]: >50 % relative to amount in AB-101
- MIC (% relative to amount in AB-101) [4, 16]: >50 % relative to amount in AB-101
- MBC (% relative to amount in AB-101) [4, 17]: >50 % relative to amount in AB-101
- MIC (% relative to amount in AB-101) [4, 17]: >50 % relative to amount in AB-101
- healing effects [2]: showed little healing effects

Compound: epicatechin
- effect on cell proliferation [2]: showed little effect

Compound: COc1ccc2c(=O)oc3c(OC)cc(CCN(C)C)c4c(=O)oc1c2c34 [Taspin]
- LogP [5, 18]: −1.15
- LogP [5, 19]: −1.76
- LogP [5, 20]: −0.90
- LogP [5, 21]: −0.31
- LogP [5, 22]: −1.06
- LogP [5, 23]: −0.94
- LogP [5, 24]: −1.71
- LogP [5, 25]: −0.07

Compound: C/C(=C\C(=O)OCCCCCCCCC(=O)O)C[C@@H]1OC[C@H](C[C@@H]2O[C@H]2[C@@H](C)[C@H](C)O)[C@@H](O)[C@H]1O [Mupirocin]
- MIC ([3]; strain CDC 227, MupirocinS): ≤0.00025 to 0.0005 ng/mL
- MIC ([4]; Staphylococcus aureus, MSSA, strain 1674606, MupirocinR, MSSA, read-out: MIC): > 256000 ng/mL
- MIC ([4]; Staphylococcus aureus, MSSA, strain 1674608, MupirocinR, MSSA, read-out: MIC): > 256000 ng/mL
- MIC ([4]; Staphylococcus aureus, MSSA, strain CDC 463, MupirocinS, MSSA, read-out: MIC): 250 to 500 ng/mL (≈ 499 to 999 nM)
- MIC ([4]; Staphylococcus aureus, MSSA, strain CDC 484, MupirocinS, MSSA, read-out: MIC): ≤ 250 ng/mL
- MIC ([4]; Staphylococcus aureus, MSSA, strain CDC 485, MupirocinS, MSSA, read-out: MIC): ≤ 250 ng/mL
- MIC [4, 26]: ≤0.00025 to 0.0005 ng/mL
- MIC [4, 27]: ≤0.00025 to 0.001 ng/mL
- MIC [4, 28]: ≤0.00025 to 0.0005 ng/mL

Compound: COc1cccc(OC)c1C(=O)N[C@@H]1C(=O)N2[C@@H]1SC(C)(C)[C@@H]2C(=O)O [Methicillin]
- MIC ([3]; strain CDC 480, MupirocinS): 0.032 to 0.064 ng/mL
- MIC ([3]; strain CDC 481, MupirocinS): 0.016 to 0.032 ng/mL
- MIC ([3]; strain CDC 482, MupirocinS): 0.008 to 0.032 ng/mL
- MIC ([4]; strain 1674606, MupirocinR, MSSA (Table 13)): 0.002 to 0.008 ng/mL
- MIC ([4]; strain 1674608, MupirocinR, MSSA (Table 13)): 0.002 to 0.004 ng/mL
- MIC [4, 26]: 0.001 to 0.002 ng/mL
- MIC [4, 27]: 0.004 to 0.008 ng/mL
- MIC [4, 28]: 0.008 to 0.016 ng/mL
- MIC ([4]; strain CDC 485, MupirocinS, MSSA (Table 13)): 0.002 to 0.004 ng/mL

Compound: Oc1cc(O)c2c(c1)O[C@H](c1cc(O)c(O)c(O)c1)[C@H](O)C2 [Epigallocatcchin]
- LogP [5, 18]: −0.79
- LogP [5, 19]: 0.27
- LogP [5, 20]: 0.86
- LogP [5, 21]: 1.82
- LogP [5, 22]: 1.20
- LogP [5, 23]: −0.11
- LogP [5, 24]: −1.71
- LogP [5, 25]: −0.55

Compound: catechin
- effect on cell proliferation [2]: showed little effect

Compound: Oc1cc(O)c2c(c1)O[C@H](c1cc(O)c(O)c(O)c1)[C@H](O)C2 [Epigallocatechin, epigallocatechin]
- Flux (J) [1, 7]: 503.51 ug/cm^2/hr
- Flux (J) [1, 8]: 57.09 ug/cm^2/hr
- effect on cell proliferation [2]: slightly stimulating to cell proliferation

Compound: COc1ccc([C@H]2Oc3c(OC)cc(CCCO)cc3[C@@H]2CO)cc1OC [dimethylcedrusin, 3′,4-0-dimethylcedrusin]
- healing effects [2]: showed little healing effects
- wound healing activity [6]: improved wound healing in vivo
